One assay concerns the target T1, XlyA (Bacillus subtilis, UniProt P39800).
T1 construct: full coding region, N-terminal His6 tag, vector pJOE5751 (plasmid pHWG1185), E. coli JM109, HisTrap; prophage PBSX gene
As to the kind of experiment: thermal shift assay (SYPRO Orange). The format is binding. To be noted: (GlcNAc)3 concentration for this protein not stated (16 mM with HEWL).

Another assay concerns the target T2, XlyB (Bacillus subtilis, UniProt O34391).
T2 construct: full coding region, N-terminal His6 tag, vector pJOE5751 (plasmid pHWG1184), E. coli JM109, HisTrap; prophage PBSX gene
As to the kind of experiment: thermal shift assay (SYPRO Orange). The format is binding. As to conditions: (GlcNAc)3 concentration for this protein not stated (16 mM with HEWL).

T1 sequence (P39800 2-297): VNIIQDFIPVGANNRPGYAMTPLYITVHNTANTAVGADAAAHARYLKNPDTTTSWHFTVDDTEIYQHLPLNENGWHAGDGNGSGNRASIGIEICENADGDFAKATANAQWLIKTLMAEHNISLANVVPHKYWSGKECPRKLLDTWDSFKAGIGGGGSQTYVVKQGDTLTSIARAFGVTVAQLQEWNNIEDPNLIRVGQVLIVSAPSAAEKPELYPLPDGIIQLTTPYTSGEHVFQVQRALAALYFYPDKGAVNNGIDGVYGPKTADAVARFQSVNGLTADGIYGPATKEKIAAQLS
T2 sequence (O34391 2-317): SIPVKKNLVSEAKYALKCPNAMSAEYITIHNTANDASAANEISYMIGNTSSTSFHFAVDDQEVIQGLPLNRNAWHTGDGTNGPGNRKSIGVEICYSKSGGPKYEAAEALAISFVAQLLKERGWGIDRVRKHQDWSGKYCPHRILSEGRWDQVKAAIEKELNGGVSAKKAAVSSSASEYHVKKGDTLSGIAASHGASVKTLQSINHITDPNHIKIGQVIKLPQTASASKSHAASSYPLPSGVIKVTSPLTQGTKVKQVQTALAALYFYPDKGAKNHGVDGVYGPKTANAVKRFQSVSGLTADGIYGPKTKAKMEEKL

Regarding `CC(=O)N[C@H]1[C@H](O[C@H]2[C@H](O)[C@@H](NC(C)=O)C(O)O[C@@H]2CO)O[C@H](CO)[C@@H](O[C@@H]2O[C@H](CO)[C@@H](O)[C@H](O)[C@H]2NC(C)=O)[C@@H]1O` (some centres unmarked) [triacetylchitotriose], the dTm on XlyA and at XlyB was 2 °C throughout.
